According to patent US20150140123A1, “Protein expression analyses for identifying genotoxic compounds” (Merck Patent GmbH, priority 2012, published 2015):
Counter-ions that a name gives are not always drawn. Like-named read-outs stand apart in the source and are kept apart here.

System: HepG2 cells
Test: High content imaging cytotoxicity parameters: selected cell count per valid field (SCC) and CMFDA cytoplasm average intensity
Experimental: HepG2 cells (Order No. HB-8065, Lot. 58483209, ATCC, Manassas, USA) were cultured in DMEM/F12 with L-Glutamine and 15 mM Hepes supplemented with 10% (v/v) FBS, 1% (v/v) penicillin (10 kU/ml)/streptomycin (10 mg/ml) solution, 0.1% (v/v) gentamicin (50 mg/ml), and 1 mM sodium pyruvate at 37° C. and 5% CO2 in culture flasks. Depending on the experiment, an appropriate number of cells were seeded onto plates after detaching of the cells using trypsin and cells were cultured at 37° C. and 5% CO2 for 24 h prior to treatment. All experiments were performed three times with cells of passages 4-20.
Cells were seeded onto black Poly-D-Lysin coated 96-well-plates (BD Biocoat, Franklin Lakes, USA) (0.02×10^6 cells/well) and left 24 h for adherence and then treated with test compounds at a maximum concentration of 1 mM which is recommended by the ICH S2(R1) guideline (EMA, 2011). For each compound, nine concentrations were tested with 2-fold serial dilutions. DMSO 1% (v/v) served as vehicle control for the experiments. The treatment procedure was different for direct-genotoxic and pro-genotoxic compounds. The treatment for direct genotoxic compounds was ongoing and was repeated daily over 48 h. Pro-genotoxic compounds were incubated for 6 h together with metabolic activation system (to limit the cytotoxic effect of the S9-mixture). After this period, cells were washed with cell media followed by 18-repeated daily over 48 h. The metabolic activation system used consisted of the following components and concentrations: 8 mM MgCl2, 32.8 mM KCl, 12 mM NADPH, 124 mM phosphate buffer and 2500 pmol/ml cytochrome P450 (CYP) content in the pre-mixture corresponding to 2.4 mM MgCl2, 9.8 mM KCl, 3.6 mM NADPH, 37.2 mM phosphate buffer, and 750 pmol/ml CYP as final concentrations after dilution 1:3.33 with cell culture media.
After treatment, cells were rinsed with PBS (Gibco Invitrogen, Karlsruhe, Germany), and then stained with 10 μM CellTracker Green 5-Chloromethylfluorescein Diacetate (CMFDA) (Invitrogen, Karlsruhe, Germany) in cell culture media for 30 min. CMFDA is per se non-fluorescent and is hydrolyzed by esterase in viable cells to a fluorescent-dye. The reaction with thiol groups leads to a cell-impermeable fluorescent-dye-adduct. The esterase activity can be used as an indicator for viability of cells (Papadopoulos et al., 1994, J Immunol Methods 177, 101-11). Afterwards, cells were washed with PBS and fixed with 3.7% Formaldehyde (Sigma-Aldrich, Taufkirchen, Germany) in PBS for 20 min. After that, cells were washed with PBS and blocked and permeabilized with 2% donkey serum (Millipore, Schwalbach, Germany) and 0.25% Triton X-100 (Sigma-Aldrich, Taufkirchen, Germany) in PBS for 30 min. Primary antibodies were diluted in Blocking/Permeabilization solution to final concentrations of 4 μg/ml anti-p-Chk1 (Ser345) goat polyclonal antibody IgG (santa cruz, Santa Cruz, USA), 4 μg/ml anti-p-ATM (Ser1981) mouse monoclonal antibody IgG1K (Millipore, Schwalbach, Germany) and added to the cells. After incubation for 16-18 h, cells were washed with 0.05% Tween 20 (Calbiochem, Darmstadt, Germany) in PBS, and the secondary antibody/16 μM Hoechst staining solution Blocking/Permeabilization solution was added. Secondary antibodies were diluted 1:400 (Alexa Fluor 555 donkey anti-goat, Alexa Fluor 647 donkey anti-mouse, Invitrogen, Karlsruhe, Germany). After an incubation of 1 h, followed by two additional washing steps with 0.05% Tween 20, cells were washed with PBS and finally PBS was added and cells were measured.
Image acquisition was performed on the ArrayScan VTI HCS Reader (Cellomics, Pittsburgh, USA) using a 20× objective. To detect enough cells, 50 images starting at the middle of each well were gathered.
• Channel 1: selected cell count per valid field • Channel 2: CMFDA cytoplasm average intensity • Channel 3: p-Chk1 (Ser345) nucleus average intensity • Channel 4: p-ATM (Ser1981) nucleus average intensity

[1] = HepG2 cells, 48 h, CMFDA cytoplasm average intensity, with rat liver S9 (+S9)
[2] = HepG2 cells, 48 h, CMFDA cytoplasm average intensity, without metabolic activation (−S9)
[3] = HepG2 cells, 48 h, selected cell count per valid field, with rat liver S9 (+S9)
[4] = HepG2 cells, 48 h, selected cell count per valid field, without metabolic activation (−S9)

Row | Molecule | CMFDA +S9 highest conc. <50% cytotox. over control (human, 48 h) [µM] | CMFDA −S9 highest conc. <50% cytotox. over control (human, 48 h) [µM] | SCC +S9 highest conc. <50% cytotox. over control (human, 48 h) [µM] | SCC −S9 highest conc. <50% cytotox. over control (human, 48 h) [µM] | CMFDA +S9 highest conc. <50% cytotox. over control (human) [µM] | CMFDA −S9 highest conc. <50% cytotox. over control (human) [µM] | SCC +S9 highest conc. <50% cytotox. over control (human) [µM] | SCC −S9 highest conc. <50% cytotox. over control (human) [µM] | other results
1 | CCCCCl [n-butyl chloride] | – | – | – | – | – | – | – | – | CMFDA +S9 highest conc. <50% cytotox. over control: 1000 µM; CMFDA −S9 highest conc. <50% cytotox. over control: 1000 µM; SCC +S9 highest conc. <50% cytotox. over control: 1000 µM; SCC −S9 highest conc. <50% cytotox. over control: 1000 µM
2 | CCc1cc(C(N)=S)ccn1 [Ethionamide] | 1000 | 1000 | 1000 | 1000 | – | – | – | – | –
3 | Cc1c2ccccc2c(C)c2c1ccc1ccccc12 [7,12-Dimethylbenz[a]anthracene] | – | – | – | – | 1000 | 250 | 500 | 125 | –
4 | COc1cc([C@@H]2c3cc4c(cc3[C@@H](O[C@@H]3O[C@@H]5CO[C@@H](C)O[C@H]5[C@H](O)[C@H]3O)[C@H]3COC(=O)[C@H]23)OCO4)cc(OC)c1O [Etoposide] | 1000 | 1000 | 1000 | – | – | – | – | – | –
5 | c1ccncc1 [Pyridine] | – | – | – | – | 1000 | 1000 | 1000 | 1000 | –
6 | CC(C)(C)c1cc(O)ccc1O [Tertiary-butylhydroquinone] | 1000 | 125 | 1000 | 125 | – | – | – | – | –
7 | Cn1c(N)nc2ncc(-c3ccccc3)cc21 [PhIP•HCl, 2-Amino-1-methyl-6-phenylimidazo[4,5-f]pyridine] | – | – | – | – | – | – | – | – | CMFDA +S9 highest conc. <50% cytotox. over control [1]: 1000 µM; CMFDA −S9 highest conc. <50% cytotox. over control [2]: 500 µM; SCC +S9 highest conc. <50% cytotox. over control [3]: 1000 µM; SCC −S9 highest conc. <50% cytotox. over control [4]: 500 µM
8 | CC(=O)[C@H]1CC[C@H]2[C@@H]3CCC4=CC(=O)CC[C@]4(C)[C@H]3CC[C@]12C [Progesterone] | 250 | 62.5 | 500 | 125 | – | – | – | – | –
9 | O=C1NS(=O)(=O)c2ccccc21.[Na] [Sodium saccharin] | – | – | – | – | 1000 | 1000 | 1000 | 1000 | –
10 | CCCCC(CC)COC(=O)c1ccccc1C(=O)OCC(CC)CCCC (stereo not drawn) [Di-(2-ethylhexyl)phthalate] | – | – | – | – | 1000 | 1000 | 1000 | 1000 | –
11 | OCCNCCO [Diethanolamine] | 1000 | 1000 | 1000 | 1000 | – | – | – | – | –
12 | Sodium xylene sulfonate | – | – | – | – | – | – | – | – | CMFDA +S9 highest conc. <50% cytotox. over control [1]: 1000 µM; CMFDA −S9 highest conc. <50% cytotox. over control [2]: 1000 µM; SCC +S9 highest conc. <50% cytotox. over control [3]: 1000 µM; SCC −S9 highest conc. <50% cytotox. over control [4]: 1000 µM
13 | C[N+](C)(C)CCCl.[Cl-] [(2-chloroethyl)trimethyl-ammonium chloride] | – | – | – | – | 1000 | 1000 | 1000 | 1000 | –
